# Data as given in patent US6337402B2, “Asymmetrical bisbenzotriazoles substituted by a perfluoroalkyl moiety and compositions stabilized therewith” (Ciba Specialty Chemicals Corporation, priority 1999, dated 2002).
# Test: not given
# Settings: not given
row,Compound,melting point [°C]
1,"CC(C)(C)c1cc(Cc2cc(C(C)(C)C)cc(-n3nc4ccc(S(=O)(=O)c5ccccc5)cc4n3)c2O)c(O)c(-n2nc3ccc(S(=O)(=O)c4ccccc4)cc3n2)c1 [A, 2,2′-Methylene-bis[6-(5-phenylsulfonyl-2H-benzotriazol-2-yl)-4-tert-butylphenol]]",224 to 234

# Test: Bisbenzotriazole solubility in adhesive GELVA 263
# Assay type: physicochemical
# Settings: in GELVA 263 polyacrylate adhesive; approximate maximum concentration with no sign of crystallization after solvent evaporation; weight added to GELVA 263 as is
# Method: To measure the solubility of the instant bisbenzotriazole UV absorber in an adhesive composition, the compound is added to a typical adhesive GELVA® 263 (Solutia) which is a 44.5% solution of a polyacrylate in a mixture of ethyl acetate and hexane. The polyacrylate is a copolymer of methyl methacrylate, 2-ethylhexyl methacrylate and glycidyl methacrylate.
# The test compound is dissolved in 5 mL of ethyl acetate, toluene or a mixture of ethyl acetate and toluene. To the solution is added 5 g of GELVA® 263. 2-3 mL of the resulting solution is place into individual watch glasses. Solubility is then evaluated based upon observed crystallization once the solvent has evaporated. Observations start after several hours and then continue over a period of several weeks.
# Solubilities are reported in weight of total bisbenzotriazole added to GELVA® 263 as is.
row,Compound,Solubility without Crystallization (%)
1,"CC(C)(C)c1cc(Cc2cc(C(C)(C)C)cc(-n3nc4ccc(S(=O)(=O)c5ccccc5)cc4n3)c2O)c(O)c(-n2nc3ccc(S(=O)(=O)c4ccccc4)cc3n2)c1 [A, 2,2′-Methylene-bis[6-(5-phenylsulfonyl-2H-benzotriazol-2-yl)-4-tert-butylphenol]]",0.0
2,"CC(C)(c1ccccc1)c1cc(-n2nc3ccccc3n2)c(O)c(C(C)(C)c2ccccc2)c1 [B, 2-(2-hydroxy-3,5-di-α-cumylphenyl)-2H-benzotriazole]",2.0
3,"CC(C)(C)c1cc(-n2nc3ccc(Cl)cc3n2)c(O)c(C(C)(C)C)c1 [C, 5-chloro-2-(2-hydroxy-3,5-di-tert-butylphenyl)-2H-benzotriazole]",2.0
4,"CC(C)(C)CC(C)(C)c1cc(Cc2cc(C(C)(C)CC(C)(C)C)cc(-n3nc4ccc(C(F)(F)F)cc4n3)c2O)c(O)c(-n2nc3ccccc3n2)c1 [D, methylene-2-[4-tert-octyl-6-(2H-benzotriazol-2-yl)phenol]-2′-[4-tert-octyl-6-(5-trifluoromethyl-2H-benzotriazol-2-yl)phenol]]",2.0
5,"CC(C)(C)CC(C)(C)c1cc(Cc2cc(C(C)(C)CC(C)(C)C)cc(-n3nc4ccc(C(F)(F)F)cc4n3)c2O)c(O)c(-n2nc3ccc(C(F)(F)F)cc3n2)c1 [E, 2,2′-methylene-bis[6-(5-trifluoromethyl-2H-benzotriazol-2-yl)-4-tert-octylphenol]]",4.0
6,"CC(C)(C)CC(C)(C)c1cc(Cc2cc(C(C)(C)C)cc(-n3nc4ccc(Cl)cc4n3)c2O)c(O)c(-n2nc3ccc(C(F)(F)F)cc3n2)c1 [F, Methylene-2-[4-tert-butyl-6-(5-chloro-2H-benzotriazol-2-yl)phenol]-2 ′-[4-tert-octyl-6-(5-trifluoromethyl-2H-benzotriazol-2-yl)phenol]]",11.0
7,"CC(C)(C)CC(C)(C)c1cc(Cc2cc(C(C)(C)C)cc(-n3nc4ccc(S(=O)(=O)c5ccccc5)cc4n3)c2O)c(O)c(-n2nc3ccc(C(F)(F)F)cc3n2)c1 [G, Methylene-2-[4-tert-butyl-6-(5-phenylsulfonyl-2H-benzotriazol-2-yl)phenol]-2′-[4-tert-octyl-6-(5-trifluoromethyl-2H-benzotriazol-2-yl)phenol]]",22.0
8,"CC(C)(C)CC(C)(C)c1cc(Cc2cc(C(C)(C)C)cc(-n3nc4ccc(Sc5ccccc5)cc4n3)c2O)c(O)c(-n2nc3ccc(C(F)(F)F)cc3n2)c1 [H, Methylene-2-[4-tert-butyl-6-(5-phenylthio-2H-benzotriazol-2-yl)phenol]-2′-[4-tert-octyl-6-(5-trifluoromethyl-2H-benzotriazol-2-yl)phenol]]",22.0
